According to patent US20260207572A1, “METHODS AND COMPOSITIONS FOR TREATMENT OF SUBJECTS WITH HEPATIC IMPAIRMENTS” (ELEVAR THERAPEUTICS, INC., priority 2022, published 2026):
Where two headings read alike, the source gives them in different places.

Assay: Phase 1 single-dose plasma pharmacokinetics in subjects with normal hepatic function, mild or moderate hepatic impairment
Format: in vivo, human
Conditions: for half-life / Tmax / concentration at 0.5 h / concentration at 1 h / concentration at 2 h / concentration at 3 h / concentration at 4 h / concentration at 6 h / concentration at 8 h / concentration at 12 h / concentration at 16 h / concentration at 24 h / concentration at 36 h / concentration at 48 h / AUC(0-t) / AUC(0-inf) / Cmax / Vd/F: human, plasma, po, 200 mg, 200 mg single oral dose
Description: Patients: 27 subjects were enrolled within the following groups based on their Child-Pugh (CP) classification score: • Group 1: Matched-control healthy subjects with normal hepatic function; • Group 2: Subjects with mild hepatic impairment (CP Class A, score of 5 or 6); • Group 3: Subjects with moderate hepatic impairment (CP Class B, score of 7 to 9).
A parallel design strategy was adopted for the hepatic impairment groups. Each matched-control healthy subject (Group 1) was enrolled following the enrollment of a mild and/or moderate hepatic impairment subject and was demographically matched by age (±10 years), BMI (±20%), and sex to the enrolled hepatic impairment subject(s). Subjects with normal hepatic function were not matched to more than 1 hepatically-impaired subject within an impairment group; however, subjects with normal hepatic function could be matched to 1 subject from more than 1 hepatic impairment group.
Other noncompartmental parameters could be reported.
The paired t-test was performed separately for each hepatic impairment group and the corresponding matched healthy controls. Estimates of geometric mean ratios in primary PK parameters between each level of impaired hepatic function versus the matched healthy controls were presented along with the corresponding 90% confidence intervals (CIs) for the geometric mean ratios. The p-value assessing the difference between each impairment group and the healthy control group was presented.
The PK analysis was conducted by Covance Early Clinical Biometrics using WinNonlin Version 8.1.

[1] = Moderate Hepatic Impairment, read-out: Plasma concentration, Arithmetic Mean
[2] = Moderate Hepatic Impairment, read-out: Plasma concentration, Geometric Mean
[3] = Moderate Hepatic Impairment, read-out: Plasma concentration, Median
[4] = Normal Hepatic Function, read-out: Plasma concentration, Arithmetic Mean
[5] = Normal Hepatic Function, read-out: Plasma concentration, Geometric Mean
[6] = Normal Hepatic Function, read-out: Plasma concentration, Median

Q: Which half-life (Moderate Hepatic Impairment, read-out: t1/2, Geometric Mean (converted)) does the source give for `N#CC1(c2ccc(NC(=O)c3cccnc3NCc3ccncc3)cc2)CCCC1` [Rivoceranib, N-[4-(1-cyanocyclopentyl)phenyl]-2-{[(pyridin-4-yl)methyl]amino} pyridine-3-carboxamide] here?
A: Its half-life is 18.4 h.

Q: What about the half-life (Moderate Hepatic Impairment, read-out: t1/2, Median (converted)) of the same compound?
A: Its half-life is 18.2 h.

Q: What about the Tmax (Moderate Hepatic Impairment, read-out: tmax, Arithmetic Mean) of the same compound?
A: Its Tmax is 2 h.

Q: What about the Tmax (Moderate Hepatic Impairment, read-out: tmax, Geometric Mean) of the same compound?
A: The Tmax was 1.8 h.

Q: And the Tmax (Moderate Hepatic Impairment, read-out: tmax, Median)?
A: Its Tmax is 2 h.

Q: What about the concentration at 0.5 h [1] of the same compound?
A: The concentration at 0.5 h was 115 ng/mL.

Q: And the concentration at 0.5 h [2]?
A: The concentration at 0.5 h was 57.1 ng/mL.

Q: And the concentration at 0.5 h [3]?
A: Its concentration at 0.5 h is 92.2 ng/mL.

Q: And the concentration at 1 h [1]?
A: The concentration at 1 h was 195 ng/mL.

Q: What about the concentration at 1 h [2] of the same compound?
A: Its concentration at 1 h is 140 ng/mL.

Q: What about the concentration at 1 h [3] of the same compound?
A: Its concentration at 1 h is 154 ng/mL.

Q: What about the concentration at 2 h [1] of the same compound?
A: Its concentration at 2 h is 190 ng/mL.

Q: And the concentration at 2 h [2]?
A: Its concentration at 2 h is 178 ng/mL.

Q: And the concentration at 2 h [3]?
A: The concentration at 2 h was 170 ng/mL.

Q: What about the concentration at 3 h [1] of the same compound?
A: The concentration at 3 h was 166 ng/mL.

Q: And the concentration at 3 h [2]?
A: The concentration at 3 h was 154 ng/mL.

Q: And the concentration at 3 h [3]?
A: The concentration at 3 h was 162 ng/mL.

Q: And the concentration at 4 h [1]?
A: Its concentration at 4 h is 134 ng/mL.

Q: What about the concentration at 4 h [2] of the same compound?
A: Its concentration at 4 h is 121 ng/mL.

Q: And the concentration at 4 h [3]?
A: Its concentration at 4 h is 132 ng/mL.

Q: And the concentration at 6 h [1]?
A: Its concentration at 6 h is 106 ng/mL.

Q: And the concentration at 6 h [2]?
A: Its concentration at 6 h is 96.8 ng/mL.

Q: And the concentration at 6 h [3]?
A: Its concentration at 6 h is 93.8 ng/mL.

Q: And the concentration at 8 h [1]?
A: Its concentration at 8 h is 85.5 ng/mL.

Q: And the concentration at 8 h [2]?
A: Its concentration at 8 h is 80.3 ng/mL.

Q: And the concentration at 8 h [3]?
A: The concentration at 8 h was 85 ng/mL.

Q: And the concentration at 12 h [1]?
A: Its concentration at 12 h is 62.3 ng/mL.

Q: And the concentration at 12 h [2]?
A: Its concentration at 12 h is 58.2 ng/mL.

Q: What about the concentration at 12 h [3] of the same compound?
A: The concentration at 12 h was 54.2 ng/mL.

Q: What about the concentration at 16 h [1] of the same compound?
A: The concentration at 16 h was 52.6 ng/mL.

Q: And the concentration at 16 h [2]?
A: Its concentration at 16 h is 45.3 ng/mL.

Q: And the concentration at 16 h [3]?
A: Its concentration at 16 h is 43.4 ng/mL.

Q: What about the concentration at 24 h [1] of the same compound?
A: Its concentration at 24 h is 44.3 ng/mL.

Q: And the concentration at 24 h [2]?
A: The concentration at 24 h was 38.7 ng/mL.

Q: And the concentration at 24 h [3]?
A: Its concentration at 24 h is 36.5 ng/mL.

Q: What about the concentration at 36 h [1] of the same compound?
A: Its concentration at 36 h is 24 ng/mL.

Q: What about the concentration at 36 h [2] of the same compound?
A: Its concentration at 36 h is 20.9 ng/mL.

Q: What about the concentration at 36 h [3] of the same compound?
A: Its concentration at 36 h is 24.9 ng/mL.

Q: And the concentration at 48 h [1]?
A: Its concentration at 48 h is 17.4 ng/mL.

Q: And the concentration at 48 h [2]?
A: The concentration at 48 h was 18.1 ng/mL.

Q: And the concentration at 48 h [3]?
A: Its concentration at 48 h is 15.5 ng/mL.

Q: What about the AUC(0-t) (Normal Hepatic Function, read-out: AUC0-t, Arithmetic Mean) of the same compound?
A: The AUC(0-t) was 2690 ng·h/mL.

Q: And the AUC(0-t) (Normal Hepatic Function, read-out: AUC0-t, Geometric Mean)?
A: Its AUC(0-t) is 2560 ng·h/mL.

Q: What about the AUC(0-t) (Normal Hepatic Function, read-out: AUC0-t, Median) of the same compound?
A: The AUC(0-t) was 2780 ng·h/mL.

Q: What about the AUC(0-inf) (Normal Hepatic Function, read-out: AUC0-∞, Arithmetic Mean) of the same compound?
A: Its AUC(0-inf) is 3180 ng·h/mL.

Q: And the AUC(0-inf) (Normal Hepatic Function, read-out: AUC0-∞, Geometric Mean)?
A: The AUC(0-inf) was 3050 ng·h/mL.

Q: And the AUC(0-inf) (Normal Hepatic Function, read-out: AUC0-∞, Median)?
A: Its AUC(0-inf) is 2880 ng·h/mL.

Q: What about the Cmax (Normal Hepatic Function, read-out: Cmax, Arithmetic Mean) of the same compound?
A: Its Cmax is 271 ng/mL.

Q: And the Cmax (Normal Hepatic Function, read-out: Cmax, Geometric Mean)?
A: Its Cmax is 250 ng/mL.

Q: What about the Cmax (Normal Hepatic Function, read-out: Cmax, Median) of the same compound?
A: The Cmax was 270 ng/mL.

Q: And the Vd/F (Normal Hepatic Function, read-out: VZ/F, Arithmetic Mean)?
A: Its Vd/F is 1340 L.

Q: What about the Vd/F (Normal Hepatic Function, read-out: VZ/F, Geometric Mean) of the same compound?
A: Its Vd/F is 1310 L.

Q: What about the Vd/F (Normal Hepatic Function, read-out: VZ/F, Median) of the same compound?
A: The Vd/F was 1190 L.

Q: What about the half-life (Normal Hepatic Function, read-out: t1/2, Arithmetic Mean (converted)) of the same compound?
A: Its half-life is 17.9 ± 8.6 h.

Q: And the half-life (Normal Hepatic Function, read-out: t1/2, Geometric Mean (converted))?
A: Its half-life is 16.3 h.

Q: And the half-life (Normal Hepatic Function, read-out: t1/2, Median (converted))?
A: The half-life was 16.9 h.

Q: What about the Tmax (Normal Hepatic Function, read-out: tmax, Arithmetic Mean) of the same compound?
A: The Tmax was 2.5 h.

Q: And the Tmax (Normal Hepatic Function, read-out: tmax, Geometric Mean)?
A: Its Tmax is 2.2 h.

Q: What about the Tmax (Normal Hepatic Function, read-out: tmax, Median) of the same compound?
A: Its Tmax is 2 h.

Q: And the concentration at 0.5 h [4]?
A: Its concentration at 0.5 h is 17.7 ng/mL.

Q: What about the concentration at 0.5 h [5] of the same compound?
A: Its concentration at 0.5 h is 15.2 ng/mL.

Q: What about the concentration at 0.5 h [6] of the same compound?
A: The concentration at 0.5 h was 6.8 ng/mL.

Q: And the concentration at 1 h [4]?
A: The concentration at 1 h was 136 ng/mL.

Q: And the concentration at 1 h [5]?
A: The concentration at 1 h was 92.9 ng/mL.

Q: And the concentration at 1 h [6]?
A: Its concentration at 1 h is 74.4 ng/mL.

Q: And the concentration at 2 h [4]?
A: The concentration at 2 h was 226 ng/mL.

Q: And the concentration at 2 h [5]?
A: The concentration at 2 h was 204 ng/mL.

Q: And the concentration at 2 h [6]?
A: Its concentration at 2 h is 236 ng/mL.

Q: What about the concentration at 3 h [4] of the same compound?
A: The concentration at 3 h was 216 ng/mL.

Q: And the concentration at 3 h [5]?
A: The concentration at 3 h was 192 ng/mL.

Q: And the concentration at 3 h [6]?
A: Its concentration at 3 h is 199 ng/mL.

Q: What about the concentration at 4 h [4] of the same compound?
A: Its concentration at 4 h is 164 ng/mL.

Q: And the concentration at 4 h [5]?
A: The concentration at 4 h was 149 ng/mL.

Q: What about the concentration at 4 h [6] of the same compound?
A: The concentration at 4 h was 147 ng/mL.

Q: What about the concentration at 6 h [4] of the same compound?
A: Its concentration at 6 h is 131 ng/mL.

Q: What about the concentration at 6 h [5] of the same compound?
A: The concentration at 6 h was 117 ng/mL.

Q: What about the concentration at 6 h [6] of the same compound?
A: Its concentration at 6 h is 106 ng/mL.

Q: What about the concentration at 8 h [4] of the same compound?
A: Its concentration at 8 h is 99.4 ng/mL.

Q: What about the concentration at 8 h [5] of the same compound?
A: The concentration at 8 h was 89.5 ng/mL.

Q: And the concentration at 8 h [6]?
A: The concentration at 8 h was 81 ng/mL.

Q: And the concentration at 12 h [4]?
A: The concentration at 12 h was 67.8 ng/mL.

Q: What about the concentration at 12 h [5] of the same compound?
A: Its concentration at 12 h is 63.2 ng/mL.

Q: And the concentration at 12 h [6]?
A: The concentration at 12 h was 61.9 ng/mL.

Q: And the concentration at 16 h [4]?
A: The concentration at 16 h was 48.8 ng/mL.

Q: And the concentration at 16 h [5]?
A: Its concentration at 16 h is 45.7 ng/mL.

Q: And the concentration at 16 h [6]?
A: The concentration at 16 h was 49.7 ng/mL.

Q: What about the concentration at 24 h [4] of the same compound?
A: The concentration at 24 h was 43.2 ng/mL.

Q: What about the concentration at 24 h [5] of the same compound?
A: Its concentration at 24 h is 40.4 ng/mL.

Q: And the concentration at 24 h [6]?
A: Its concentration at 24 h is 43 ng/mL.

Q: What about the concentration at 36 h [4] of the same compound?
A: The concentration at 36 h was 23.9 ng/mL.

Q: What about the concentration at 36 h [5] of the same compound?
A: The concentration at 36 h was 21.3 ng/mL.

Q: What about the concentration at 36 h [6] of the same compound?
A: Its concentration at 36 h is 24.2 ng/mL.

Q: And the concentration at 48 h [4]?
A: Its concentration at 48 h is 14.9 ng/mL.

Q: And the concentration at 48 h [5]?
A: Its concentration at 48 h is 14.8 ng/mL.

Q: What about the concentration at 48 h [6] of the same compound?
A: The concentration at 48 h was 15.9 ng/mL.

Q: What about the “exposure in mild or moderate hepatic impairment compared to normal hepatic function” value (same amount of rivoceranib) of the same compound?
A: The value was “do not have a statistically significant difference in exposure”.
